Laboratory results from US11299496B2, “Ligands for alpha-7 nicotinic acetylcholine receptors and methods of treating neurological and inflammatory conditions” (Northeastern University, priority 2014, dated 2022).

Columns and labels:
human alpha-7 nAChR [1] = molecular target: T1, human alpha-7 nAChR (Homo sapiens, UniProt P36544); assay: Two-electrode voltage clamp of alpha-7 nAChR expressed in Xenopus oocytes (net charge); format: cell-based; conditions: for Charge Alone: compound alone acting as an allosteric agonist; for Charge Alone / Charge +C: area under the curve of current vs. time; for Charge +C: compound together with choline or ACh, includes PAM and ago-PAM activity
T1 construct: expressed in transfected cells; host or cells: Xenopus laevis oocytes (cRNA injection)
T1 sequence (P36544 23-502): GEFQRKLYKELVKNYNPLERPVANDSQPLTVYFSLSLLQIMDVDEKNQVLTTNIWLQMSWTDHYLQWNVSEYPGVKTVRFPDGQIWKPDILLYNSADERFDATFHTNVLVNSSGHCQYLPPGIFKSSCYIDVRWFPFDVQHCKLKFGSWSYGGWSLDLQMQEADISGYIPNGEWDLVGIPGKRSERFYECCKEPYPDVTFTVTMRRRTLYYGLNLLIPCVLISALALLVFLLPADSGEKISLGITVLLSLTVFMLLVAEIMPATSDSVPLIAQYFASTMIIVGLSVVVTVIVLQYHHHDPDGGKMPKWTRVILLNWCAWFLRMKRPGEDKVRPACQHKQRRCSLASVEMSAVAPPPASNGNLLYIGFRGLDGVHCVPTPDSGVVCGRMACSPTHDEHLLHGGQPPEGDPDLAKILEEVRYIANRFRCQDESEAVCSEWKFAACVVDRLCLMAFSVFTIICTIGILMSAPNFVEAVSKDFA
Procedure, shortened: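 Human α7 nAChR co-expressed with RIC-3 in Xenopus oocytes; two-electrode clamp at −60 mV, 12 s applications in Ringer's pH 7.3. Net charge integrated over 120 s from application, normalized to prior ACh controls; measured for compound alone and with choline or ACh; n≥4 oocytes.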

human alpha-7 nAChR [2] = molecular target: T1, human alpha-7 nAChR; assay: Electrophysiological evaluation of PAMs and ago-PAMs in Xenopus oocytes (direct activation, direct and primed potentiation); format: cell-based
Excerpt: Electrophysiological evaluation in Xenopus oocytes was used to determine the potency and efficacy with which PAMs and ago-PAMs of the invention produce self-induced agonism and positive allosteric modulation of the orthosteric, agonist-induced activation of the alpha-7 nAChR. The ability of these compounds to increase the maximal channel influx and to enhance the activity of the receptor on its own as well as in presence of choline is denoted by Imax and EC50 respectively. The details of cDNA clones and RNA for injection was as published. Thakur et. al. 2013, J. Med. Chem. 2013 Nov. 14; 56(21):8943-7. doi: 10.1021/jm401267t). For experiments involving PAM and ago-PAM analogs, where standard levels of expression result in ion currents too large to be recorded in voltage clamp, experiments were typically conducted 1-3 days after RNA injection.
Two-electrode voltage clamp was conducted using OpusXpress 6000A (Molecular Devices, Union City, Calif.). Both the voltage and current electrodes were filled with 3 M KCl. Oocytes were voltage-clamped at −60 mV except when determining the effect of voltage on channel activation. The oocytes were bath-perfused with Ringer's solution (115 mM NaCl, 2.5 mM KCl, 1.8 mM CaCl2, 10 mM HEPES, and 1 μM atropine, pH 7.2) with a flow rate of 2 mL/min. To evaluate the effects of experimental compounds on ACh-evoked responses of alpha-7 nAChRs expressed in oocytes, the initial control responses were measured with two applications of ACh alone, before applications of experimental drugs alone or co-applications with ACh. The agonist solutions were applied from a 96-well plate via disposable tips, and the drugs were either co-applied with ACh by the OpusXpress pipette delivery system or bath-applied using the OpusXpress system to switch the running buffer. Drug applications were for 12 s followed by a 181 s washout period and usually alternated between controls and test solutions. After experimental drug applications, follow-up control applications of ACh were made to determine primed potentiation, desensitization or rundown of the receptors. Data were collected at 50 Hz, filtered at 20 Hz, analyzed by Clampfit 9.2 (Molecular Devices) and Excel (Microsoft, Redmond Wash.), and normalized to the averaged current of the two initial control responses. Data were expressed as mean±SEM from at least four oocytes for each experiment. For the concentration-response relationships, responses were normalized to the net charge of the most adjacent prior control.
A detailed comparative activity profile of select ago-PAMs/PAMs based on the structure of 4BP-TQS was obtained. […] They also functioned as direct PAMs, producing responses when co-applied with ACh. However, the primed potentiation of response to ACh alone was less after direct potentiation than after direct activation, due to residual induction of PAM-insensitive desensitization.

CC(C)(C)CC(=O)Nc1ccc([C@H]2Nc3ccc(S(N)(=O)=O)cc3[C@H]3C=CC[C@H]32)cc1 (stereo in doubt) [Compound 64, 3,3-dimethyl-N-(4-(8-sulfamoyl-3a,4,5,9b-tetrahydro-3H-cyclopenta[c]quinolin-4-yl)phenyl)butanamide]
Charge Alone (human alpha-7 nAChR [1]): 597 | Charge +C (human alpha-7 nAChR [1]): 652 | effectiveness as ago-PAM compared to GAT154 (human alpha-7 nAChR [2]): almost equally effective as ago-PAMs | effectiveness as allosteric agonist compared to GAT154 (human alpha-7 nAChR [2]): more effective as allosteric agonists

CC(C)(C)OC(=O)Nc1ccc([C@H]2Nc3ccc(S(N)(=O)=O)cc3[C@H]3C=CC[C@H]32)cc1 [Compound 24]
Charge Alone (human alpha-7 nAChR [1]): 212 | Charge +C (human alpha-7 nAChR [1]): 580 | 'ago' component / ago-PAM activity (human alpha-7 nAChR [1]; in words): increased ‘ago’ component | types of activity (direct activation, direct potentiation, primed potentiation) (human alpha-7 nAChR [2]): exhibited all three types of activities

CCOC(=O)Nc1ccc([C@H]2Nc3ccc(S(N)(=O)=O)cc3[C@H]3C=CC[C@H]32)cc1 (stereo in doubt) [Compound 60, ethyl(4-(8-sulfamoyl-3a,4,5,9b-tetrahydro-3H-cyclopenta[c]quinolin-4-yl)phenyl)carbamate]
Charge +C (human alpha-7 nAChR [1]): 276

NS(=O)(=O)c1ccc2c(c1)[C@H]1C=CC[C@H]1[C@@H](c1ccccn1)N2 (stereo in doubt) [Compound 52, 4-(pyridin-2-yl)-3a,4,5,9b-tetrahydro-3H-cyclopenta[c]quinoline-8-sulfonamide]
Charge +C (human alpha-7 nAChR [1]): 4

CCN(CC)S(=O)(=O)c1ccc2c(c1)[C@H]1C=CC[C@H]1[C@@H](c1ccc(Br)cc1)N2 (stereo in doubt) [Compound 55, 4-(4-bromophenyl)-N,N-diethyl-3a,4,5,9b-tetrahydro-3H-cyclopenta[c]quinoline-8-sulfonamide]
Charge Alone (human alpha-7 nAChR [1]): Inactive | Charge +C (human alpha-7 nAChR [1]): Inactive

O=S(=O)(NC1CCC1)c1ccc2c(c1)[C@H]1C=CC[C@H]1[C@@H](c1ccc(Br)cc1)N2 [Compound 104, 4-(4-bromophenyl)-N-cyclobutyl-3a,4,5,9b-tetrahydro-3H-cyclopenta[c]quinoline-8-sulfonamide]
Charge Alone (human alpha-7 nAChR [1]): Inactive | Charge +C (human alpha-7 nAChR [1]): Inactive

O=C(O)c1ccc2c(c1)[C@H]1C=CC[C@H]1[C@@H](c1ccc(Br)cc1)N2 (stereo in doubt) [Compound 40, 4-(4-bromophenyl)-3a,4,5,9b-tetrahydro-3H-cyclopenta[c]quinoline-8-carboxylic acid]
Charge Alone (human alpha-7 nAChR [1]): Inactive | Charge +C (human alpha-7 nAChR [1]): Inactive

NS(=O)(=O)c1ccc2c(c1)[C@H]1C=CC[C@H]1[C@@H](c1ccc(NC(=O)OC3C4CC5CC(C4)CC3C5)cc1)N2 (stereo in doubt) [Compound 63, adamantan-2-yl (4-(8-sulfamoyl-3a,4,5,9b-tetrahydro-3H-cyclopenta[c]quinolin-4-yl)phenyl)carbamate]
Charge Alone (human alpha-7 nAChR [1]): 5 | Charge +C (human alpha-7 nAChR [1]): 25

NS(=O)(=O)c1ccc2c(c1)[C@H]1C=CC[C@H]1[C@@H](c1ccc(N=C=S)cc1)N2 (stereo in doubt) [Compound 26, 4-(4-isothiocyanatophenyl)-3a,4,5,9b-tetrahydro-3H-cyclopenta[c]quinoline-8-sulfonamide]
Charge Alone (human alpha-7 nAChR [1]): 0 | Charge +C (human alpha-7 nAChR [1]): 22

NS(=O)(=O)c1ccc2c(c1)[C@H]1C=CC[C@H]1[C@@H](Cc1ccccc1)N2 (stereo in doubt) [Compound 13, 4-benzyl-3a,4,5,9b-tetrahydro-3H-cyclopenta[c]quinoline-8-sulfonamide]
Charge +C (human alpha-7 nAChR [1]): 76

NS(=O)(=O)c1ccc2c(c1)[C@H]1C=CC[C@H]1[C@@H](c1ccc(CCCBr)cc1)N2 [Compound 71, 4-(4-(3-bromopropyl)phenyl)-3a,4,5,9b-tetrahydro-3H-cyclopenta[c]quinoline-8-sulfonamide]
Charge Alone (human alpha-7 nAChR [1]): 1 | Charge +C (human alpha-7 nAChR [1]): 284

CNS(=O)(=O)c1ccc2c(c1)[C@H]1C=CC[C@H]1[C@@H](c1ccc(Br)cc1)N2 (stereo in doubt) [Compound 22, 4-(4-bromophenyl)-N-methyl-3a,4,5,9b-tetrahydro-3H-cyclopenta[c]quinoline-8-sulfonamide]
Charge Alone (human alpha-7 nAChR [1]): Inactive | Charge +C (human alpha-7 nAChR [1]): Inactive

O=S(=O)(c1ccc2c(c1)[C@@H]1C=CC[C@@H]1[C@H](c1ccc(Br)cc1)N2)N1CCCC1 [Compound 56, (3aS,4R,9bR)-4-(4-bromophenyl)-8-(pyrrolidin-1-ylsulfonyl)-3a,4,5,9b-tetrahydro-3H-cyclopenta[c]quinolone]
Charge Alone (human alpha-7 nAChR [1]): Inactive | Charge +C (human alpha-7 nAChR [1]): Inactive

NS(=O)(=O)c1ccc2c(c1)[C@H]1C=CC[C@H]1[C@@H](c1ccc3sccc3c1)N2 (stereo in doubt) [Compound 96, 4-(benzo[b]thiophen-5-yl)-3a,4,5,9b-tetrahydro-3H-cyclopenta[c]quinoline-8-sulfonamide]
Charge Alone (human alpha-7 nAChR [1]): 116 | Charge +C (human alpha-7 nAChR [1]): 156

NS(=O)(=O)c1ccc2c(c1)[C@H]1C=CC[C@H]1[C@@H](c1ccccc1[N+](=O)[O-])N2 (stereo in doubt) [Compound 20, 4-(2-nitrophenyl)-3a,4,5,9b-tetrahydro-3H-cyclopenta[c]quinoline-8-sulfonamide]
Charge +C (human alpha-7 nAChR [1]): 52

CS(=O)(=O)Nc1ccc2c(c1)[C@H]1C=CC[C@H]1[C@@H](c1ccc(Br)cc1)N2 (stereo in doubt) [Compound 115, N-(4-(4-bromophenyl)-3a,4,5,9b-tetrahydro-3H-cyclopenta[c]quinolin-8-yl)methanesulfonamide]
Charge Alone (human alpha-7 nAChR [1]): Inactive | Charge +C (human alpha-7 nAChR [1]): Inactive

CC(C)(C)NS(=O)(=O)c1ccc2c(c1)[C@H]1C=CC[C@H]1[C@@H](c1ccc(Br)cc1)N2 (stereo in doubt) [Compound 101, 4-(4-bromophenyl)-N-(tert-butyl)-3a,4,5,9b-tetrahydro-3H-cyclopenta[c]quinoline-8-sulfonamide]
Charge Alone (human alpha-7 nAChR [1]): Inactive | Charge +C (human alpha-7 nAChR [1]): Inactive

N#Cc1ccc([C@@H]2Nc3ccc(S(N)(=O)=O)cc3[C@H]3C=CC[C@H]32)cc1 (stereo in doubt) [Compound 6, 4-(4-cyanophenyl)-3a,4,5,9b-tetrahydro-3H-cyclopenta[c]quinoline-8-sulfonamide]
Charge Alone (human alpha-7 nAChR [1]): Inactive | Charge +C (human alpha-7 nAChR [1]): Inactive

CCCNS(=O)(=O)c1ccc2c(c1)[C@H]1C=CC[C@H]1[C@H](c1c(C)c(C)cc(C)c1C)N2 (stereo in doubt) [Compound 111, N-propyl-4-(2,3,5,6-tetramethylphenyl)-3a,4,5,9b-tetrahydro-3H-cyclopenta[c]quinoline-8-sulfonamide]
Charge Alone (human alpha-7 nAChR [1]): Inactive | Charge +C (human alpha-7 nAChR [1]): Inactive

CN(C)S(=O)(=O)c1ccc2c(c1)[C@H]1C=CC[C@H]1[C@@H](c1ccc(Br)cc1)N2 (stereo in doubt) [Compound 21, 4-(4-bromophenyl)-N,N-dimethyl-3a,4,5,9b-tetrahydro-3H-cyclopenta[c]quinoline-8-sulfonamide]
Charge Alone (human alpha-7 nAChR [1]): Inactive | Charge +C (human alpha-7 nAChR [1]): Inactive

CC(C)(C)NC(=O)Oc1ccc([C@H]2Nc3ccc(S(N)(=O)=O)cc3[C@H]3C=CC[C@H]32)cc1 (stereo in doubt) [Compound 65, 4-(8-sulfamoyl-3a,4,5,9b-tetrahydro-3H-cyclopenta[c]quinolin-4-yl)phenyl tert-butylcarbamate]
Charge Alone (human alpha-7 nAChR [1]): 332 | Charge +C (human alpha-7 nAChR [1]): 740 | effectiveness as ago-PAM compared to GAT154 (human alpha-7 nAChR [2]): almost equally effective as ago-PAMs | effectiveness as allosteric agonist compared to GAT154 (human alpha-7 nAChR [2]): more effective as allosteric agonists

NS(=O)(=O)c1ccc2c(c1)[C@H]1C=CC[C@H]1[C@@H](c1c(F)c(F)c(F)c(F)c1F)N2 (stereo in doubt) [Compound 42, 4-(perfluorophenyl)-3a,4,5,9b-tetrahydro-3H-cyclopenta[c]quinoline-8-sulfonamide]
Charge +C (human alpha-7 nAChR [1]): 47

NS(=O)(=O)c1ccc2c(c1)[C@H]1C=CC[C@H]1[C@@H](c1csc(Br)c1)N2 (stereo in doubt) [Compound 35, 4-(5-bromothiophen-3-yl)-3a,4,5,9b-tetrahydro-3H-cyclopenta[c]quinoline-8-sulfonamide]
Charge +C (human alpha-7 nAChR [1]): 157
